“And” between values parts separate entries of the source, which are not always exact repeats. Equal values may be shown once.
Legend:
Tgfb1 = assay: qPCR of liver RNA: Tgfb1; type: in vivo, Male Sprague-Dawley rats; conditions: liver, across dose groups, vs control
Protocol: Working on dry ice, a portion (−10 mg) of flash-frozen liver was cut from each sample and transferred to a clean, labeled tube. Total RNA was then isolated using Qiagen's miRNeasy 96 kit (Qiagen, Valencia, Calif.) following manufacturer's instructions with a final elution volume of −150 μL (2×75 μL). The quality and quantity of RNA samples were evaluated with a 2100 Bioanalyzer (Agilent Technologies, Santa Clara, Calif.), using the Agilent RNA 6000 Nano Reagents and a multiwell NanoDrop 8000 spectrophotometer (Thermo Fisher Scientific, Waltham, Mass.).
Using 1 μg RNA input, cDNA was generated using a QuantiTect Reverse Transcription kit (Qiagen, Valencia, Calif.) following manufacturer's instructions. Applied Biosystems SYBR Green Master Mix was used in a 20 μL qPCR reaction with 2 μL of cDNA template and a 2.tM final concentration of each primer. A total of five genes were targeted (Gapdh, Actb, Timp1, Tgfbl, and Psma5), two of which served as the endogenous controls (Gapdh and Actb). An Applied Biosystems 7500 Real-Time PCR System (Applied Biosystems, Foster City, Calif.) was used for thermal cycling and fluorescence detection using the default settings for Quantitation-Comparative CT with SYBR® . . . Green Reagents which uses the following scheme: 95° C. for 10 minutes followed by 40 cycles of: 95° C. for 15 seconds, 60° C. for 1 minute, and a fluorescence signal read. Al! primers were obtained from Integrated DNA Technology's PrimeTime qPCR primer library (Integrated DNA Technologies, Coralville, Iowa).
Data was imported into GraphPad Prism (GraphPad Software, Inc.; LaJolla, Calif.) for analysis. A nonparametric Kruskal-Wallis analysis of variance by ranks with post hoc […] multiple comparison test was used to determine statistical difference among dose groups. A one sample t-test compared to a theoretical mean of 1.0 fold change was used to determine difference from control for each dose group. A p-value<0.05 was used as a cutoff for statistical significance.

[1] = system: 67 genes on the fibrosis gene panel; assay: Multiplexed fibrosis gene panel (QuantiGene 2.0 Plex / Bioplex) on liver RNA
[2] = Carbon Tetrachloride 200 mg/kg, animal 54
[3] = liver RNA, individual animals, Carbon Tetrachloride 200, Bromobenzene 785, Dexamethasone 1 mg/kg

`ClC(Cl)(Cl)Cl` [carbon tetrachloride] was tested, and the “Tgfb1 gene expression by qPCR” value (Tgfb1) was “insignificant”, the “Tgfb1 gene expression by qPCR” value (Tgfb1; listed as Carbon tetrachloride) was “not significantly upregulated at any dose” and the A2m differential expression [1, 2] was −3.423. It also gave an Arf6 differential expression [1, 2] of 0.270, a Cxcl1 differential expression [1, 2] of 0.190 and an RT1-DMa differential expression [1, 2] of 0.225. For the same compound, the “Differential Expression of A2m” value [1, 3] was −2.891 and −2.439 and −5.167, the “Differential Expression of Angptl3” value [1, 3] was −0.612 and −1.071 and −0.753 and −0.775 and the “Differential Expression of Anxa2” value [1, 3] was 0.553 and 0.586 and 0.834 and 0.587. For the same compound, the “Differential Expression of Apoc” value [1, 3] was −0.311 and −0.356 and −0.337 and −0.414, the “Differential Expression of Arf6” value [1, 3] was 0.172 and 0.167 and 0.214 and the “Differential Expression of Arpc1b” value [1, 3] was 1.102 and 1.145 and 1.554 and 1.382. For the same compound, the “Differential Expression of Arrb1” value [1, 3] was 1.846 and 2.288 and 2.226 and 1.692, the “Differential Expression of C1qb” value [1, 3] was 0.268 and 0.290 and 0.085 and 0.332 and the “Differential Expression of CD9” value [1, 3] was −0.279 and −0.103 and 0.754 and −0.347. For the same compound, the “Differential Expression of CD53” value [1, 3] was 0.486 and 1.094 and 1.315 and 1.262, the “Differential Expression of CP” value [1, 3] was −0.227 and −0.328 and −0.317 and −0.414 and the “Differential Expression of Capg” value [1, 3] was 0.433 and 0.855 and 0.909 and 0.968. The “Differential Expression of Ccl2” value [1, 3] was 1.671 and 1.662 and 2.378 and 1.370, the “Differential Expression of Col1a1” value [1, 3] was 1.336 and 1.411 and 1.309 and 1.774 and the “Differential Expression of Col1a2” value [1, 3] was 0.249 and 0.458 and 0.329 and 0.672. The “Differential Expression of Col4a1” value [1, 3] was −0.521 and −0.024 and −0.441 and 0.104, the “Differential Expression of Col5a2” value [1, 3] was 1.411 and 2.330 and 2.442 and 2.138 and the “Differential Expression of Ctgf” value [1, 3] was 2.135 and 2.232 and 2.664 and 1.663. The “Differential Expression of Cxcl1” value [1, 3] was −0.500 and −0.165 and −0.462, the “Differential Expression of Cxcl12” value [1, 3] was 0.040 and 0.320 and 0.041 and 0.403 and the “Differential Expression of Cxcl16” value [1, 3] was 1.440 and 1.782 and 1.992 and 1.656. The “Differential Expression of Cyba” value [1, 3] was 0.522 and 0.799 and 0.888 and 0.887, the “Differential Expression of Cyp2c11” value [1, 3] was −1.357 and −3.301 and −0.339 and −0.904 and the “Differential Expression of Dsc2” value [1, 3] was 0.091 and −0.280 and −0.204 and −0.265. For the same compound, the “Differential Expression of Fam102b” value [1, 3] was −0.378 and −0.140 and −0.011 and −0.240, the “Differential Expression of Fam105a” value [1, 3] was 0.309 and 0.576 and 0.985 and 0.758 and the “Differential Expression of Fbn1” value [1, 3] was −0.149 and 0.230 and −0.294 and 0.107. The “Differential Expression of Fn1” value [1, 3] was −0.120 and −0.152 and −0.364 and −0.262, the “Differential Expression of Fstl1” value [1, 3] was −0.259 and 0.017 and −0.180 and 0.025 and the “Differential Expression of Fxyd5” value [1, 3] was 0.160 and 0.404 and 0.507 and 0.213. For the same compound, the “Differential Expression of Gpnmb” value [1, 3] was 1.494 and 2.232 and 3.101 and 2.714, the “Differential Expression of Igfals” value [1, 3] was −0.528 and −0.092 and −0.771 and −0.189 and the “Differential Expression of Igfbp1” value [1, 3] was 0.019 and 0.070 and 0.480 and −0.925. For the same compound, the “Differential Expression of Igfbp2” value [1, 3] was −0.542 and 1.416 and 0.505 and −1.839, the “Differential Expression of Igfbp3” value [1, 3] was −0.324 and 0.063 and −0.304 and −0.113 and the “Differential Expression of Itga1” value [1, 3] was 0.220 and 0.585 and 0.503 and 0.756. The “Differential Expression of Itgb2” value [1, 3] was −0.115 and 0.502 and 0.455 and 0.302, the “Differential Expression of Lame2” value [1, 3] was 2.323 and 2.130 and 2.338 and 1.341 and the “Differential Expression of Lbp” value [1, 3] was 0.594 and 0.379 and 0.665 and 0.050. The “Differential Expression of Len2” value [1, 3] was −1.654 and 0.356 and 1.528 and 2.126, the “Differential Expression of Lgals1” value [1, 3] was 0.936 and 0.978 and 1.986 and 1.602 and the “Differential Expression of Lgals3” value [1, 3] was 0.994 and 1.444 and 2.024 and 1.736. For the same compound, the “Differential Expression of Lgals3bp” value [1, 3] was 0.391 and 0.486 and 0.360 and 0.302, the “Differential Expression of Lox” value [1, 3] was −0.215 and −0.493 and 0.022 and 0.077 and the “Differential Expression of Lrp1” value [1, 3] was −0.329 and −0.337 and −0.524 and −0.671. The “Differential Expression of Lum” value [1, 3] was 0.298 and −0.201 and 0.404 and 0.442, the “Differential Expression of Mmp2” value [1, 3] was −0.062 and 0.311 and 0.610 and −0.241 and the “Differential Expression of Nid1” value [1, 3] was −0.021 and 0.232 and 0.186 and 0.154. For the same compound, the “Differential Expression of Pcolce” value [1, 3] was 0.002 and 0.354 and 0.651 and −0.401, the “Differential Expression of Pkm2” value [1, 3] was 0.077 and 0.586 and 0.642 and 0.663 and the “Differential Expression of Plat” value [1, 3] was −0.025 and −0.411 and −0.289 and −0.385. For the same compound, the “Differential Expression of Plau” value [1, 3] was 0.039 and 0.765 and 0.947 and 0.720, the “Differential Expression of Plod2” value [1, 3] was −0.129 and −0.357 and −0.045 and −0.258 and the “Differential Expression of RT1-DMa” value [1, 3] was 0.711 and 0.673 and 1.089. For the same compound, the “Differential Expression of RT1-Da” value [1, 3] was 0.559 and 0.918 and 1.213 and 1.280, the “Differential Expression of S100A6” value [1, 3] was −0.079 and −0.686 and 0.408 and −0.019 and the “Differential Expression of S100A11” value [1, 3] was 0.119 and 0.421 and 0.731 and 0.599. The “Differential Expression of Serpine1” value [1, 3] was 0.309 and −0.345 and 0.467 and −0.524, the “Differential Expression of Serping1” value [1, 3] was −0.712 and −0.714 and −0.546 and −0.514 and the “Differential Expression of Slc25a24” value [1, 3] was −0.245 and −0.511 and −0.262 and −0.615. For the same compound, the “Differential Expression of Sod2” value [1, 3] was 0.022 and 0.009 and −0.014 and −0.116, the “Differential Expression of TagIn2” value [1, 3] was 0.218 and 0.282 and 0.110 and 0.153 and the “Differential Expression of Tgfb1” value [1, 3] was −0.322 and 0.107 and −0.102 and −0.395. For the same compound, the “Differential Expression of Timp1” value [1, 3] was 0.939 and 1.200 and 1.645 and 1.241, the “Differential Expression of Vhl” value [1, 3] was 2.369 and 2.626 and 2.628 and 2.130 and the “Differential Expression of Vim” value [1, 3] was 0.044 and 0.004 and 0.348 and 0.360. The “Differential Expression of Vtn” value [1, 3] was −0.291 and −0.381 and −0.494 and −0.473, the “Panel gene expression relative to other chemical-dose groups” value ([1]; liver, 67-gene panel) was “mid-way between fibrosis-positive chemical-dose groups and non-fibrogenic chemical-dose groups” and the “Hierarchical biclustering of log2 fold-changes in panel gene expression” value ([1]; liver, 67 genes) was “clustered mid-way between non-fibrogenic and fibrogenic doses of the other fibrogenic chemicals”.

From US11371097B2, “Articles for diagnosis of liver fibrosis” (THE GOVERNMENT OF THE UNITED STATES, as represented by THE …, priority 2015, dated 2022)
